Assay results taken from ChEMBL document CHEMBL3227967, “Quantitative structure-activity relationships in 1-aryl-2-(alkylamino)ethanol antimalarials” (J Med Chem, 1979).

Test system: Plasmodium berghei
Test: Antimalarial activity against Plasmodium berghei
Format: functional

Structure (SMILES) | log(1/C)
COc1ccc2nc(C(F)(F)F)cc(C(O)CC3CCCCN3)c2c1 (centres undefined) | 2.97
CC(C)(C)NCC(O)c1cc(C(F)(F)F)nc2c(C(F)(F)F)cccc12 (centres undefined) | 2.64
Cc1cccc2c(C(O)CC3CCCCN3)cc(-c3ccc(Cl)cc3)nc12 (centres undefined) | 3.67
CCCCCCN(CCCCCC)CC(O)c1cc(-c2ccc(Cl)cc2)nc2cc(Cl)c(OC)cc12 (centres undefined) | 3.07
CCCCN(CCCC)CC(O)c1c(C)cnc2c1ccc1ccccc12 (centres undefined) | 2.15
CCOCCN(CCOCC)CC(O)c1cc(-c2ccc(Cl)c(Cl)c2)nc2ccc(OC)cc12 (centres undefined) | 2.83
CCCCCCCN(CCCCCCC)CC(O)c1cc2ccc(C(F)(F)F)cc2c2ccsc12 (centres undefined) | 2.69
CCCCN(CCCC)CC(O)c1cc(/C=C/c2ccc(C(F)(F)F)cc2)nc(-c2ccc(C(F)(F)F)cc2)c1 (centres undefined) | 4.26
OC(CC1CCCCN1)c1cc2c(Cl)c(Cl)ccc2c2cc(C(F)(F)F)ccc12 (centres undefined) | 4.45
CCCCN(CCCC)CC(O)c1c(Cl)cc2ccc(-c3ccc(Cl)cc3)nc2c1Cl (centres undefined) | 3.02
OC(CC1CCCCN1)c1cc(C(F)(F)F)nc2c1cc(Cl)c1ccccc12 (centres undefined) | 3.43
CCCCCCN(CCCCCC)CC(O)c1cccc2c1ccc1ccccc12 (centres undefined) | 2.03
OC(CC1CCCCN1)c1cc2ccc(Cl)cc2c2cc(Cl)c(Cl)cc12 (centres undefined) | 3.86
CCCCN(CCCC)CC(O)c1cc(-c2ccc(C(F)(F)F)cc2)nc(-c2ccc(C(F)(F)F)cc2)c1.O=C(O)CCC(=O)O (centres undefined) | 4.23
CN(C)CC(O)c1cc(-c2ccc(Cl)cc2)nc(-c2ccc(Cl)cc2)c1 (centres undefined) | 3.18
Cc1cc(C)c2nc(Oc3ccc(Cl)cc3)cc(C(O)CC3CCCCN3)c2c1 (centres undefined) | 2.72
Cc1cccc2c(C(O)CC3CCCCN3)cc(C(F)(F)F)nc12 (centres undefined) | 2.93
CCCCN(CCCC)CC(O)c1cc(C(C)(C)C)nc2c1cc(C)c1ccccc12 (centres undefined) | 2.32
OC(CC1CCCCN1)c1cc(C(F)(F)F)nc2ccc(F)cc12 (centres undefined) | 2.33
CCCCN(CCCC)CC(O)c1cc(Cl)cc2cc3ccccc3cc12 (centres undefined) | 2.72
OC(CC1CCCCN1)c1cc2ccc(C(F)(F)F)cc2c2cc(Cl)ccc12 (centres undefined) | 4.25
CCCCCCNCC(O)c1cc2ccc(C(F)(F)F)cc2c2cc(C(F)(F)F)ccc12 (centres undefined) | 3.78
CCCCNc1cc(C(O)CC2CCCCN2)c2ccccc2n1 (centres undefined) | 2.41
CCN(CC)CC(O)c1cc(-c2ccccc2)nc2ccc(OC)cc12 (centres undefined) | 2.44
CCCCN(CCCC)CCC(O)c1cc(C(F)(F)F)nc2ccc(C(F)(F)F)cc12 (centres undefined) | 3.31

Structure (SMILES) | log(1/C)
CCCCN(CCCC)CC(O)c1cc(-c2ccc(C(F)(F)F)cc2)nc(-c2ccc(C(F)(F)F)cc2)c1 (centres undefined) | 4.09
CCCCN(CCCC)CC(O)c1cc(Oc2cccc(C(C)(F)F)c2)nc2c(Cl)cc(Cl)cc12 (centres undefined) | 2.76
CCCCN(CCCC)CC(O)c1cc(-c2cccc(C(F)(F)F)c2)nc2c(Cl)cc(Cl)cc12 (centres undefined) | 3.93
CCCC[N+]([O-])(CCCC)CC(O)c1cc(-c2ccc(Cl)c(Cl)c2)nc(-c2ccc(Cl)c(Cl)c2)c1 (centres undefined) | 2.72
CC(C)CCCN(CCC(C)C)CC(O)c1cc(-c2ccc(C(F)(F)F)cc2)nc(C(F)(F)F)c1 (centres undefined) | 3.04
CCCCN(CCCC)CC(O)c1cc(Cl)cc2c1-c1ccc(Cl)cc1C2 (centres undefined) | 3.97
CCCCN(CCCC)CC(O)c1cc2cc(Cl)cc(Cl)c2c2ccc(Cl)cc12 (centres undefined) | 4.12
CCCCCCCCN(CCCCCCCC)CC(O)c1cc(-c2ccc(CC)c(CC)c2)cc2ccc(C)cc12 (centres undefined) | 3.15
OC(CC1CCCCN1)c1cc2ccc(C(F)(F)F)cc2c2c(Cl)cc(Cl)cc12 (centres undefined) | 4.3
CCCCCCCN(CCCCCCC)CCC(O)c1cc2ccccc2c2ccccc12 (centres undefined) | 3
CCCCCCCN(CCCCCCC)CC(O)c1cc2cnccc2c2ccccc12 (centres undefined) | 2.47
CCN(CC)CC(O)c1cc(Cl)cc2ccc(-c3ccc(Cl)cc3)nc12 (centres undefined) | 2.12
CCCCCN(CCCCC)CC(O)c1cc(-c2ccc(C(F)(F)F)cc2)nc(-c2ccc(C(F)(F)F)cc2)c1 (centres undefined) | 3.97
CCCCN(CCCC)CC(O)c1cc(Cl)nc2ccccc12 (centres undefined) | 2.14
CCCCCCCN(CCCCCCC)CC(O)c1cc2ccccc2c2ccc3ccccc3c12 (centres undefined) | 3.25
OC(CN1CCCCC1)c1cc(-c2ccc(Cl)cc2)nc2c(Cl)cc(Cl)cc12 (centres undefined) | 3.49
CCCCN(CCCC)CC(O)c1cc2ccc(Br)cc2c2cc(Cl)sc12 (centres undefined) | 3.43
CCCC(CCC)NCC(O)c1cc(-c2ccc(C(F)(F)F)cc2)nc(-c2ccc(C(F)(F)F)cc2)c1 (centres undefined) | 4.35
CCCCCCCCN(CCCCCCCC)CCC(O)c1cc2c(O)cccc2c2ccccc12 (centres undefined) | 2.65
OC(CC1CCCCN1)c1ccnc2cc(Cl)ccc12 (centres undefined) | 2.14
OC(CC1CCCCN1)c1cc2cc(Cl)ccc2c2cc(C(F)(F)F)ccc12 (centres undefined) | 4.07
OC(CC1CCCCN1)c1cc2ccc(Br)cc2c2cc(Br)ccc12 (centres undefined) | 3.31
CCCCN(CCCC)CC(O)c1c2ccccc2c(Br)c2ccccc12 (centres undefined) | 2.88
OC(CN1CCCCCC1)c1cc(-c2cccs2)nc2cccc(Br)c12 (centres undefined) | 2.89
CCCN(CCC)CC(O)c1cc(-c2ccc(Cl)cc2)nc(-c2ccc(Cl)cc2)c1 (centres undefined) | 3.3

Structure (SMILES) | log(1/C)
CCCCN(CCCC)CC(O)c1cc2cc(Cl)ccc2c2cc(Cl)ccc12 (centres undefined) | 3.81
OC(CNC1CCC1)c1cc(-c2ccc(C(F)(F)F)cc2)nc(-c2ccc(C(F)(F)F)cc2)c1 (centres undefined) | 3.85
OC(CC1CCCCN1)c1cc2cc3c(cc2c2cc(Cl)ccc12)OCO3 (centres undefined) | 3.14
CCCCN(CCCC)CC(O)C1CC(c2ccc(Cl)c(Cl)c2)=Nc2c(Cl)cc(Cl)cc21 (centres undefined) | 3.6
Cc1cccc2c(C(O)CC3CCCCN3)cc(-c3ccc(F)cc3)nc12 (centres undefined) | 3.72
OC(CC1CCCCN1)c1cc2cc(Cl)ccc2c2ccc(C(F)(F)F)cc12 (centres undefined) | 3.25
CCCCN(CCCC)CC(O)c1cc(-c2ccc(Br)cc2)nc(-c2ccc(C(F)(F)F)cc2)c1 (centres undefined) | 3.62
CCCCCCN(CCCCCC)CC(O)c1cc(-c2ccc(F)cc2)nc(-c2ccc(F)cc2)c1 (centres undefined) | 2.58
COc1ccc(-c2cc(C(O)CC3CCCCN3)c3cccc(C)c3n2)cc1 (centres undefined) | 3.18
CCCCN(CCCC)CC(O)c1cc2ccc(C(F)(F)F)cc2c2cc(C(F)(F)F)ccc12 (centres undefined) | 4.1
CCCCCCN(CCCCCC)CC(O)c1cc(-c2ccc(Cl)cc2)nc2cc(OC)c(Cl)cc12 (centres undefined) | 2.8
OC(CC1CCCCN1)c1cc(-c2ccccc2)nc2ccccc12 (centres undefined) | 2.37
CCCCN(CCCC)CC(O)c1cc(C(=O)c2ccc(C(F)(F)F)cc2)nc2c(Cl)cc(Cl)cc12 (centres undefined) | 4.86
CCCCCCN(CCCCCC)CC(O)c1cc(-c2ccc(OC)c(OC)c2)nc2ccc(Cl)cc12 (centres undefined) | 3.32
C=C[C@H]1CN2CC[C@H]1C[C@H]2[C@H](O)c1cc(-c2ccccc2)nc2ccc(OC)cc12 | 2.72
CCCCN(CCCC)CC(O)c1nc(-c2ccc(Cl)cc2)nc2ccccc12 (centres undefined) | 2.85
CCCCN(CCCC)CC(O)c1cc(-c2ccc(Cl)cc2)nc2c(OC)ccc(OC)c12 (centres undefined) | 2.52
CCCCCCN(CCCCCC)CC(O)c1cc(-c2ccc(Cl)cc2)nc2c(C)cc(C)cc12 (centres undefined) | 3.75
CN1CCN(CC(O)c2cc(-c3ccc(Cl)cc3)nc3cc(Cl)ccc23)CC1 (centres undefined) | 2.66
OC(CC1CCCCN1)c1cc2cc(Br)ccc2c2cc(Br)ccc12 (centres undefined) | 4.13
CCCCCCCCN(CCCCCCCC)CC(O)c1ccc(Br)c2ccccc12 (centres undefined) | 2.24
CCCCN(CCCC)CC(O)c1cc2ccc(Br)cc2c2cc(Br)ccc12 (centres undefined) | 3.63
CN1CCCCC1CC(O)c1cc(-c2ccccc2)nc2ccc(Cl)cc12 (centres undefined) | 2.7
CCN(CC)CC(O)c1cc(-c2ccc(Cl)c(Cl)c2)nc(-c2ccc(Cl)c(Cl)c2)c1 (centres undefined) | 3.04
CN1CCCCC1CC(O)c1cc2ccccc2c2cc(Br)ccc12 (centres undefined) | 3.44

Structure (SMILES) | log(1/C)
CCN(CC)CC(O)c1cc(-c2ccc(Br)cc2)nc(-c2ccc(Br)cc2)c1 (centres undefined) | 3.13
CCCCCCN(CCCCCC)CC(O)c1cc(-c2ccc(Cl)cc2)nc(-c2ccc(Cl)cc2)c1 (centres undefined) | 3.18
CCCCN(CCCC)CC(O)c1cc2cc(Br)ccc2c2cc(S(C)(=O)=O)ccc12 (centres undefined) | 3.43
CCCCN(CCCC)CC(O)c1cc2ccccc2c2cc(C(F)(F)F)ccc12 (centres undefined) | 3.23
CCCCN(CCCC)CC(O)c1c2ccccc2c(Cl)c2ccccc12 (centres undefined) | 3.51
CCN(CC)C(CO)CC(O)c1cc(-c2cccs2)nc2ccc(Cl)cc12 (centres undefined) | 2.12
OC(CC1CCCCN1)c1cc2cc(C(F)(F)F)cc(C(F)(F)F)c2c2cc(Cl)ccc12 (centres undefined) | 4.72
CCN(CC)CC(O)c1cc(-c2ccc(Cl)cc2)nc(-c2ccc(Cl)cc2)c1 (centres undefined) | 3.19
CCCCCN(CCCCC)CC(O)c1cc2ccc(Cl)c(Cl)c2c2cc(C(F)(F)F)ccc12 (centres undefined) | 4.26
CCCCCCCN(CCCCCCC)CC(O)c1cccc2ccc3ccccc3c12 (centres undefined) | 2.19
CCCCCCNCC(O)c1cc(-c2ccc(C(F)(F)F)cc2)nc(-c2ccc(C(F)(F)F)cc2)c1 (centres undefined) | 3.96
OC(CC1CCCCN1)c1cc2cc(Cl)ccc2c2c(C(F)(F)F)cccc12 (centres undefined) | 4.05
OC(CC1CCCCN1)c1cc(Oc2ccc(Cl)cc2)nc2ccc(Cl)cc12 (centres undefined) | 3.23
OC(CC1CCCCN1)c1cc2ccc(C(F)(F)F)cc2c2cc(Cl)c(Cl)cc12 (centres undefined) | 4.02
CCCCN(CCCC)CC(O)c1cc(-c2ccc3c(c2)OCO3)nc2cc(Cl)ccc12 (centres undefined) | 3.09
CCN(CC)CC(O)c1ccnc2cc(Cl)ccc12 (centres undefined) | 3.03
C=C[C@H]1CN2CC[C@H]1C[C@H]2[C@H](O)c1ccnc2ccc(OC)cc12 [QUININE] | 2.06
CCCNCC(O)c1cc(C(F)(F)F)nc2c(C(F)(F)F)cccc12 (centres undefined) | 2.92
OC(CC1CCCCN1)c1cc2cc(Cl)c(Cl)cc2c2cc(Cl)ccc12 (centres undefined) | 3.69
CCCCN(CCCC)CC(O)c1cc2ccsc2c2cc(C(F)(F)F)ccc12 (centres undefined) | 3.5
CCCCN(CCCC)CC(O)c1cc(-c2ccc(Cl)cc2)nc(-c2ccc(Br)cc2)c1 (centres undefined) | 3.36
OC(CC1CCCCN1)c1cc2cc(Cl)ccc2c2ccccc12 (centres undefined) | 2.56
CCCCN(CCCC)CC(O)c1c(Br)c2cc(Br)ccc2c2ccc(Br)cc12 (centres undefined) | 3.09
CCCCCCCN(CCCCCCC)CC(O)c1cc2c(Cl)cc(Cl)cc2c2ccsc12 (centres undefined) | 3
